The test system of assay [1] is A549 cells. Briefly: Cell cycle progression (propidium iodide, flow cytometry). The conditions noted are these: A549, IC50 concentration. The class given is cell-based, human. The procedure: A549 and HCT-116 cells were incubated with the tested compounds at their IC50 concentrations for 24, 48, and 72 h. DMSO (1% v/v) was used as a reference (Sigma-Aldrich). After incubation, the cells were collected in trypsin, fixed with 75% ice-cold ethanol, and stored overnight at − 20 °C. Then, the cells were stained with 20 μg/ml propidium iodide (Sigma-Aldrich) and 50 μg/ml RNaseA (Thermo Fisher Scientific) in phosphate-buffered saline (PBS) for 30 min at room temperature (RT). The content of DNA in cells was determined by flow cytometry (Guava EasyCyte 8 cell sorter; Merck Millipore) using FlowJo software v10. Each experiment was repeated three times.

For assay [2], the system named is A549 cells. Description: Apoptosis assay (Annexin V/7-AAD, flow cytometry). The class given is cell-based, human. The settings on record: A549, IC50 concentration. The procedure: To further explain the mechanism by which 4a induced cell death in cancer cells, a flow cytometric analysis was performed by dual-staining the cells with 7-aminoactinomycin D (7-AAD) and Annexin V-fluorescein isothiocyanate (FITC). Annexin-V is a Ca^2+-dependent protein with potent affinity to phosphatidylserine. During early apoptosis, cells lose plasma membrane asymmetry through, for example, the externalization of phosphatidylserine. Once exposed to the outside of the cell surface, phosphatidylserine can be recognized by Annexin-V, and quantified. On the other hand, 7-AAD is a dye that cannot penetrate the intact cell membrane, and allows differentiating between necrotic and late apoptotic cells from living and early apoptotic cells. […] Treatment with the tested compound for 24 h caused 3.9-fold augmentation in apoptosis [early: 7-AAD (–), Annexin V-FITC (+); late: 7-AAD (+), Annexin V-FITC (+)] in comparison to the vehicle.
Cells were seeded in a 5-cm^2 dish at a density of 15 × 10^5 cells per dish and allowed to attach overnight at 37 °C. Then, compounds at IC50 concentrations were added to the medium. After 6, 24, and 48 h, the cells were harvested and washed with PBS. Subsequently, the cells were resuspended in the binding buffer and stained with Annexin V Alexa Fluor™ 488 conjugate (#A13201; Thermo Fisher Scientific) for the apoptosis assay and with CellEvent™ Caspase-3/7 Green Flow Cytometry Assay Kit (#C10427; Thermo Fisher Scientific) for the activation of caspase-3/7, as per the manufacturer’s instructions. After incubation, the samples were immediately analyzed using a Guava EasyCyte 8 cell sorter (Merck Millipore) and FlowJo software v10. Each experiment was repeated three times.

Each structure is given as a SMILES string.

The record followed here is publication PMC9646836, “Tetrahydroquinolinone derivatives exert antiproliferative effect on lung cancer cells through apoptosis induction” (Scientific Reports, 2022).

Regarding `O=c1[nH]c2c(c(-c3ccccc3)c1Cc1cccc3ccccc13)CCCC2` [Compound 4a, 3-(1-naphthylmethyl)-4-phenyl-5,6,7,8-tetrahydro-1H-quinolin-2-one], the “fraction of cells at the G0/G1 phase” value with A549 cells [1] is “time-dependent decrease”. In the assay on A549 cells [1], the “fraction of cells in sub-G0 phase” value was “concomitant increase”. The figures for the “fraction of cells in G2 phase” value with A549 cells [1] (24 h (DMSO 3.2%)) and in the assay on A549 cells [1] (48 h (DMSO 3.2%)) were 15.5% and 33.8%, respectively. Moreover, the “increase in the fraction of early-apoptotic cells [7-AAD (–), Annexin V-FITC (+)]” value in the assay on A549 cells [2] (6 h, vs DMSO control) worked out at 14.03 ± 1.74%. Moreover, the “augmentation in apoptosis (early + late)” value with A549 cells [2] (24 h, vs vehicle) was determined as 3.9 fold. In the assay with A549 cells [2] (48 h), the “percentage of apoptotic cells” value is on record as “significant increase”.
